Ends that are not written are not given here.
How the values were obtained:
[1] = system: Staphylococcus spp (4) biofilm cells; assay type: cell-based
Description: (§1) The FIC was also calculated to assess the interaction of two antimicrobial agents in combination against bacterial biofilms. The same formulae applied, using MBEC instead of MIC.
(§2) A total volume of 100 μl bacterial inoculum in Mueller-Hinton was added to each well of 96-well plates (challenge plates) and the plates were incubated at 37° C. for 24 h on a gyrorotary shaking platform (Grant-bio PS-3D, Shepreth, England) at 24 rpm to allow for biofilm formation.
(§3) The challenge plates were then rinsed once with sterile PBS (lx) and two-fold serial dilutions of antimicrobial agents in Mueller-Hinton were added to the challenge plates. The challenge plates were incubated at 37° C. for 24 h on a gyrorotary shaking platform (Grant-bio PS-3D, Shepreth, England) at 24 rpm.
(§4) The supernatants from each of the challenge plates were transferred into fresh plates and the optical density was measured at 625 nm on a microtitre plate reader (BioTek Powerwave XS, Winooski, USA). The MBEC was obtained by the lowest concentration of antimicrobial showing no bacterial growth.
(§5) Summary of the activity of the tested antimicrobial agents against the Gram-negative P. aeruginosa strains and the Gram-positive Staphylococcus spp. The number into brackets indicates the maximum number of strains tested. MIC: minimum inhibition concentration; MBEC: minimum biofilm eradication concentration; FIC: fractional inhibitory concentration.

[2] = system: P. aeruginosa ATCC BAA-47 (PAO1) biofilm cells; experiment: MBEC against 24 h-old biofilm; assay type: cell-based, Pseudomonas aeruginosa; conditions: agent alone; FIG. 5
Description: as §1, §2, §3, §4
The assessment of the activity of NP108 and cysteamine against bacterial biofilms was carried out with 24 h-old biofilms and the activity of both compounds in combination was also determined. The activity of the antimicrobial agents against bacterial biofilms was determined by their activity against the biofilm cells and against the persister cells.

[3] = system: Staphylococcus spp (4); experiment: microbe, parasite or virus in culture; assay type: cell-based; conditions: agent alone; range over strains
Description: (§6) The bacterial inoculum was established by the dilution method from actively-growing cultures in Mueller-Hinton broth, standardized with 0.5 McFarland turbidity standard as described in the CLSI method M26-A.
(§7) To determine the prevention of biofilm formation, both the bacterial inoculum and the antimicrobial agents were added simultaneously to the plates. The plates were incubated at 37° C. for 24 h and the optical density was read at 625 nm on a microtitre plate reader (BioTek Powerwave XS, Winooski, USA). The MIC was obtained as the lowest concentration of antimicrobial showing total inhibition of bacterial growth.
(§8) The FIC corresponds to an interaction coefficient indicating whether the combination of antimicrobial agents is synergistic, additive, antagonist or neutral. The FIC is determined by comparing the activity of an agent in combination (MIC of agent A+agent B) with the activity of the agent alone (MIC of agent A or agent B) as follow (Singh et al., 2000):
(§9) FIC=MICA[combination]/MICA[alone]+MICB[combination]/MICB[alone]
(§10) Additive combinations of two antimicrobial agents are indicated by a FIC index of 1, whereas a FIC index <1 indicates synergistic combinations. Neutral combinations would give a FIC between 1 and 4, a FIC index higher than 4 indicates antagonist effects between the two antimicrobial agents.
as §5

[4] = system: P. aeruginosa strains (7) persister cells; experiment: Persister cells in biofilms (live/dead staining), summary over strains; assay type: cell-based, Pseudomonas aeruginosa; conditions: agent alone
Description: (§11) Following transfer of the supernatant from the challenge plates, the biofilms were rinsed once with sterile PBS (lx) and 100 μl of BacLight live/dead fluorescent staining solution (Invitrogen, Paisley, UK) containing 4 μM SYTO9 and 20 μM propidium iodide (PI) in sterile PBS (lx) were added to the wells of the challenge plates. The plates were incubated at room temperature in the dark for 15 min and the fluorescence was read at 485(ex)/528(em) and 485(ex)/645(em) for SYTO9 and PI fluorescence, respectively on a fluorescence microtitre plate reader (BioTek Synergy HT, Winooski, USA) with the sensitivity set at 50 and bottom optics position was selected. Direct observation of the biofilms with an Axiovert 40 fluorescence microscope (Zeiss, Gottingen, Germany) allowed identifying the presence of live and dead bacteria and pictures of the biofilms were taken at 100 to 400-fold magnification.
(§12) The relative viability of persister cells was determined by the live/dead fluorescence measurements ratio and microscopic observations were used to confirm the presence or absence of live cells.
as §5

[5] = system: P. aeruginosa ATCC BAA-47 (PAO1) persister cells; experiment: Relative viability of persister cells (SYTO9/PI live/dead fluorescence, microscopy); assay type: cell-based, Pseudomonas aeruginosa; conditions: agent alone; FIG. 6, FIG. 8
Description: as §11, §12
The activity of NP108 and cysteamine against the persister cells was assessed using a fluorescence staining method to determine the relative viability of the cells. The nucleic acid-binding fluorescent molecules used were SYTO9 and PI, which penetrate all bacterial cells (green fluorescence) and membrane-disrupted cells (red fluorescence), respectively.

[6] = system: P. aeruginosa strains (7); experiment: microbe, parasite or virus in culture; assay type: cell-based, Pseudomonas aeruginosa; conditions: agent alone; range over strains
Description: as §6, §7, §8, §9, §10, §5

[7] = system: P. aeruginosa strains (7) biofilm cells; assay type: cell-based, Pseudomonas aeruginosa; conditions: agent alone
Description: as §1, §2, §3, §4, §5

[8] = system: S. aureus DSM 11729 (MRSA)
[9] = system: P. aeruginosa DSMZ1128; assay type: cell-based, Pseudomonas aeruginosa; conditions: DSMZ1128, 24 h
Description: as §6, §7

[10] = system: P. aeruginosa DSMZ1299; assay type: cell-based, Pseudomonas aeruginosa; conditions: DSMZ1299, 24 h, pH 7
Description: as §6, §7

[11] = system: P. aeruginosa ATCC BAA-47; experiment: microbe, parasite or virus in culture; assay type: cell-based, Pseudomonas aeruginosa; conditions: ATCC BAA-47, 24 h
Description: as §6
as §7, with “growth. […]” for “growth.”
(§13) FIC=MICA[combination]/MICA[alone]+MICB[combination]/MICB[alone] […]
(§14) In order to assess for the prevention of biofilm formation by both Gram-positive and Gram-negative bacteria, the bacterial inoculum and antimicrobial agents were added simultaneously in the plates. The range of concentrations of antimicrobial agents was 0-500 μg/ml NP108 and 0-320 μg/ml cysteamine against the Gram-negative bacteria P. aeruginosa ATCC BAA-47 and 0-1000 μg/ml NP108 and 0-320 μg/ml cysteamine against the Gram-positive MRSA.

[12] = system: S. aureus DSM 11729 (MRSA); experiment: microbe, parasite or virus in culture; assay type: cell-based, Staphylococcus aureus; conditions: DSM 11729, 24 h
Description: as §6
as §7, with “growth. […]” for “growth.”
as §13, §14

[13] = system: S. aureus ATCC25923; conditions: ATCC25923, pH 7
[14] = system: P. aeruginosa DSMZ1128; conditions: DSMZ1128, pH 7
[15] = system: S. aureus ATCC25923; assay type: cell-based, Staphylococcus aureus; conditions: ATCC25923, 24 h
Description: as §6, §7

[16] = system: S. epidermidis ATCC12228; conditions: ATCC12228, pH 7
[17] = system: S. epidermidis ATCC12228; assay type: cell-based, Staphylococcus epidermidis; conditions: ATCC12228, 24 h
Description: as §6, §7

[18] = system: P. aeruginosa DSMZ1299; conditions: DSMZ1299, pH 7
[19] = system: P. aeruginosa ATCC BAA-47

Compound: N=C(N)NCCC[C@@H](N)C(=O)N[C@H](CCCNC(=N)N)C(=O)N[C@H](CCCNC(=N)N)C(=O)N[C@H](CCCNC(=N)N)C(=O)N[C@H](CCCNC(=N)N)C(=O)N[C@H](CCCNC(=N)N)C(=O)N[C@H](CCCNC(=N)N)C(=O)N[C@H](CCCNC(=N)N)C(=O)N[C@H](CCCNC(=N)N)C(=O)N[C@H](CCCNC(=N)N)C(=O)N[C@H](CCCNC(=N)N)C(=O)N[C@H](CCCNC(=N)N)C(=O)N[C@H](CCCNC(=N)N)C(=O)O [NP339, dRdRdRdRdRdRdRdRdRdRdRdRdR]
- MBEC against biofilms of 3 Staphylococcus species ([1]; FIG. 5, range over 3 species): 156 to 625 µg/mL
- MBEC, Staphylococcus spp (4) ([1]; agent alone, biofilm cells): 156 to 625 µg/mL
- MBEC, P. aeruginosa BAA-47 (PAO1); highest dose tested not sufficient to inhibit 100% of the biofilm cells [2]: > 5 mg/mL
- MIC, Staphylococcus spp (4) [3]: 4 to 128 µg/mL
- Persisters, active concentration, P. aeruginosa strains (7) [4]: 625 µg/mL
- concentration that inhibits the viability of P. aeruginosa BAA-47 (PAO1) persister cells [5]: 625 µg/mL
- MIC, P. aeruginosa strains (7) [6]: 62.5 µg/mL
- MBEC, P. aeruginosa strains (7) [7]: >5,000 μg/ml

Compound: KKFPWRLRLRYGRR [NP445, KKFPWRLRLRYGRR]
- MBC at pH5.5, S. aureus 11729 ([8]; DSM 11729, pH 5.5): >500 μg/ml
- MBC pH5.5, 320 mM NaCl, S. aureus 11729 ([8]; DSM 11729, pH 5.5): >500 μg/ml
- MBC following MIC at pH 7, S. aureus DSMZ11729 ([8]; DSM 11729, pH 7): >500 μg/ml
- MIC at pH 7, P. aeruginosa DSMZ1128 [9]: 62.5 μg/ml
- MIC at pH 7, P. aeruginosa D5MZ1299 [10]: 31.25 μg/ml
- MIC pH5.5, 320 mM NaCl, P. aeruginosa ATCCBAA-47 ([11]; pH 5.5): >500 μg/ml
- MIC pH5.5, P. aeruginosa ATCCBAA-47 ([11]; pH 5.5): >500 μg/ml
- MIC at pH 7, P. aeruginosa ATCCBAA-47 ([11]; pH 7): 31.25 μg/ml
- MIC pH5.5, 320 mM NaCl, S. aureus 11729 ([12]; pH 5.5): >500 μg/ml
- MIC pH5.5, S. aureus 11729 ([12]; pH 5.5): >500 μg/ml
- MIC at pH 7, S. aureus DSMZ11729 ([12]; pH 7): 500 μg/ml
- MBC following MIC at pH 7, S. aureus ATCC25923 [13]: >500 μg/ml
- MBC following MIC at pH 7, P. aeruginosa DSMZ1128 [14]: 250 μg/ml
- MIC at pH 7, S. aureus ATCC25923 [15]: 500 μg/ml
- MBC following MIC at pH 7, S. epidermidis ATCC12228 [16]: 62.5 μg/ml
- MIC at pH 7, S. epidermidis ATCC12228 [17]: <7.8 μg/ml
- MBC following MIC at pH 7, P. aeruginosa DSMZ1299 [18]: 125 μg/ml
- MBC at pH5.5, P. aeruginosa ATCCBAA-47 ([19]; ATCC BAA-47, pH 5.5): >500 μg/ml
- MBC pH5.5, 320 mM NaCl, P. aeruginosa ATCCBAA-47 ([19]; ATCC BAA-47, pH 5.5): >500 μg/ml
- MBC following MIC at pH 7, P. aeruginosa ATCCBAA-47 ([19]; ATCC BAA-47, pH 7): 250 μg/ml
